This is an account of results in patent publication US20250098679A1, “HERBICIDAL PYRIDONE DERIVATIVES” (SYNGENTA CROP PROTECTION AG, priority 2021, published 2025).

Format in all cases: in vivo
What all share (conditions): evaluated after 13 days

In experiment [1] the test system is Zea mays (ZEAMX). As to the kind of experiment: Post-emergence Test, Zea mays (ZEAMX). On the set-up: key to percentage damage caused to the plant, ZEAMX (five-point scale): 5=81-100%, 4=61-80%, 3=41-60%, 2=21-40%, 1=0-20% damage. The procedure, abridged: (§1)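 Scores are percentage plant damage on a 1–5 scale (1=0-20%, 2=21-40%, 3=41-60%, 4=61-80%, 5=81-100%), read 13 days after treatment. Pots received a spray at 1000 g/ha unless otherwise stated, formulated in acetone/water (50:50) containing 0.5% Tween 20.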

Experiment [2] relates to Echinochloa crus-galli (ECHCG). Put plainly: Post-emergence Test, Echinochloa crus-galli (ECHCG). On the set-up: key to percentage damage caused to the plant, ECHCG (five-point scale): 5=81-100%, 4=61-80%, 3=41-60%, 2=21-40%, 1=0-20% damage. The method, boiled down:
as §1

For experiment [3], the system named is Amaranthus retoflexus (AMARE). Put plainly: Post-emergence Test, Amaranthus retoflexus (AMARE). Also on record: key to percentage damage caused to the plant, AMARE (five-point scale): 5=81-100%, 4=61-80%, 3=41-60%, 2=21-40%, 1=0-20% damage. The procedure, abridged: as §1
The test system of experiment [4] is Zea mays (ZEAMX). As to the kind of experiment: Pre-emergence Test, Zea mays (ZEAMX).
Experiment [5] has as its system Amaranthus palmeri (AMAPA). Put plainly: Post-emergence Test, Amaranthus palmeri (AMAPA). Also on record: key: 5=81-100%, 4=61-80%, 3=41-60%, 2=21-40%, 1=0-20% damage. The procedure, abridged: as §1
Experiment [6] has as its system Setaria faberi (SETFA). As to the kind of experiment: Pre-emergence Test, Setaria faberi (SETFA).
Experiment [7] concerns Ipomoea hederacea (IPOHE). Put plainly: Post-emergence Test, Ipomoea hederacea (IPOHE). On the set-up: key to percentage damage caused to the plant, IPOHE (five-point scale): 5=81-100%, 4=61-80%, 3=41-60%, 2=21-40%, 1=0-20% damage. The procedure, abridged:
as §1

Experiment [8] has as its system Ipomoea hederacea (IPOHE). As to the kind of experiment: Pre-emergence Test, Ipomoea hederacea (IPOHE).
Experiment [9] concerns Amaranthus retoflexus (AMARE). Put plainly: Pre-emergence Test, Amaranthus retoflexus (AMARE).
Experiment [10] concerns Amaranthus palmeri (AMAPA). Put plainly: Pre-emergence Test, Amaranthus palmeri (AMAPA).
For experiment [11], the system named is Setaria faberi (SETFA). Put plainly: Post-emergence Test, Setaria faberi (SETFA). On the set-up: key to percentage damage caused to the plant, SETFA (five-point scale): 5=81-100%, 4=61-80%, 3=41-60%, 2=21-40%, 1=0-20% damage. The method, boiled down:
as §1

The subject of experiment [12] is Echinochloa crus-galli (ECHCG). Put plainly: Pre-emergence Test, Echinochloa crus-galli (ECHCG).

Regarding `CCn1c(Cn2cc3c(n2)COC3)cc(=O)c(C(=O)O)c1-c1ccc(Cl)c(Cl)c1` [Compound 92, 2-(3,4-dichlorophenyl)-6-(4,6-dihydrofuro[3,4-c]pyrazol-2-ylmethyl)-1-ethyl-4-oxo-pyridine-3-carboxylic acid], the “percentage damage caused to the plant, ZEAMX (five-point scale)” value in the experiment on Zea mays (ZEAMX) [1] (250 g/Ha) and in the experiment with Zea mays (ZEAMX) [1] (1000 g/ha) was 2 (2=21-40%) throughout. Further, the figures for the “percentage damage caused to the plant, ECHCG (five-point scale)” value in [2] (250 g/Ha) and in experiment [2] (1000 g/ha) were 3 (3=41-60%) and 4 (4=61-80%), respectively. For the same compound, the “percentage damage caused to the plant, AMARE (five-point scale)” value in experiment [3] (250 g/Ha) and in experiment [3] (1000 g/ha) was 2 (2=21-40%) throughout. Also, the “Pre-emergence Test ZEAMX, percentage damage caused to the plant (five-point scale)” value in the experiment on Zea mays (ZEAMX) [4] (250 g/Ha (*)) and in the experiment with Zea mays (ZEAMX) [4] (1000 g/ha) was 0 each time. Also, the “percentage damage caused to the plant, AMAPA (five-point scale)” value in experiment [5] (250 g/Ha) and in experiment [5] (1000 g/ha) was 2 (2=21-40%) throughout. Moreover, the “Pre-emergence Test SETFA, percentage damage caused to the plant (five-point scale)” value is reported as 3 (3=41-60%) in the experiment on Setaria faberi (SETFA) [6] (250 g/Ha (*)) and 4 (4=61-80%) with Setaria faberi (SETFA) [6] (1000 g/ha). The “percentage damage caused to the plant, IPOHE (five-point scale)” value in experiment [7] (250 g/Ha) and in experiment [7] (1000 g/ha) was 3 (3=41-60%) in each case. For the same compound, the figures for the “Pre-emergence Test IPOHE, percentage damage caused to the plant (five-point scale)” value in experiment [8] (250 g/Ha (*)) and in experiment [8] (1000 g/ha) were 3 (3=41-60%) and 2 (2=21-40%), respectively. Besides, the “Pre-emergence Test AMARE, percentage damage caused to the plant (five-point scale)” value in [9] (250 g/Ha (*)) and in experiment [9] (1000 g/ha) was 0 throughout. Moreover, the “Pre-emergence Test AMAPA, percentage damage caused to the plant (five-point scale)” value in [10] (250 g/Ha (*)) was 1 (1=0-20%); in experiment [10] (1000 g/ha), 2 (2=21-40%). The “percentage damage caused to the plant, SETFA (five-point scale)” value in the experiment with Setaria faberi (SETFA) [11] (250 g/Ha) and in the experiment on Setaria faberi (SETFA) [11] (1000 g/ha) was 3 (3=41-60%) throughout. Further, the “Pre-emergence Test ECHCG, percentage damage caused to the plant (five-point scale)” value in experiment [12] (250 g/Ha (*)) is 3 (3=41-60%); in [12] (1000 g/ha) it was 4 (4=61-80%).
Regarding `CCn1c(Cn2ncc(Cl)c2C2CC2)cc(=O)c(C(=O)O)c1-c1ccc(Cl)c(Cl)c1` [Compound 93, 6-[(4-chloro-5-cyclopropyl-pyrazol-1-yl)methyl]-2-(3,4-dichlorophenyl)-1-ethyl-4-oxo-pyridine-3-carboxylic acid], in the experiment on Zea mays (ZEAMX) [1] (250 g/Ha), the “percentage damage caused to the plant, ZEAMX (five-point scale)” value was 1 (1=0-20%). Moreover, in experiment [2] (250 g/Ha), the “percentage damage caused to the plant, ECHCG (five-point scale)” value was 2 (2=21-40%). Besides, the “percentage damage caused to the plant, AMARE (five-point scale)” value in [3] (250 g/Ha) is 1 (1=0-20%). Further, the “Pre-emergence Test ZEAMX, percentage damage caused to the plant (five-point scale)” value with Zea mays (ZEAMX) [4] (250 g/Ha (*)) is on record as 0. For the same compound, the “percentage damage caused to the plant, AMAPA (five-point scale)” value in experiment [5] (250 g/Ha) is listed as 1 (1=0-20%). The “Pre-emergence Test SETFA, percentage damage caused to the plant (five-point scale)” value with Setaria faberi (SETFA) [6] (250 g/Ha (*)) is listed as 0. The “percentage damage caused to the plant, IPOHE (five-point scale)” value in experiment [7] (250 g/Ha) is 1 (1=0-20%). The “Pre-emergence Test IPOHE, percentage damage caused to the plant (five-point scale)” value in experiment [8] (250 g/Ha (*)) came to 0. The “Pre-emergence Test AMARE, percentage damage caused to the plant (five-point scale)” value in [9] (250 g/Ha (*)) was 1 (1=0-20%). Besides, in experiment [10] (250 g/Ha (*)), the “Pre-emergence Test AMAPA, percentage damage caused to the plant (five-point scale)” value was 2 (2=21-40%). The “percentage damage caused to the plant, SETFA (five-point scale)” value in the experiment with Setaria faberi (SETFA) [11] (250 g/Ha) is on record as 1 (1=0-20%). For the same compound, the “Pre-emergence Test ECHCG, percentage damage caused to the plant (five-point scale)” value in experiment [12] (250 g/Ha (*)) is reported as 0.
